In EP0469084B1, “HEPATOSPECIFIC INSULIN ANALOGUES” (MOUNT SINAI SCHOOL OF MEDICINE OF THE CITY UNIVERSITY OF …, priority 1989, dated 1995):

Experiments:
[1] = from U.S. Patent 4,992,417 and PCT/US88/02289; cited from earlier work
FAO cells = experiment: Inhibition of gluconeogenesis assay (glucose secretion by confluent hepatoma cell monolayers); type: cell-based; conditions: for potency in inhibiting gluconeogenesis relative to the natural hormone: ratio of concentration of insulin to analogue producing half-maximal inhibition of glucose production, FAO hepatoma cells
Excerpt: (§1) Although insulin analogues, in general, maintain some residual insulin activity, the potency of such analogues is usually only a fraction of that of natural insulins. The potency of human, bovine and porcine insulins in USP standards is about 25-26 IU (international units) per mg protein. Standard assay for measuring insulin potency include inter alia (1) insulin radioreceptorassays, in which the relative potency of an insulin is defined as the ratio of insulin to insulin analogue required to displace 50% of ¹²⁵I-insulin specifically bound to insulin receptors present on cell membranes, e.g. a rat liver plasma membrane fraction, isolated rat adipocytes, or isolated rat hepatocytes; (2) lipogenesis assays, performed e.g. with rat adipocytes, in which relative insulin potency is defined as the ratio of insulin to insulin analogue required to achieve 50% of the maximum conversion of [3-³H] glucose into organic-extractable material (i.e. lipids); (3) glucose oxidation assays in isolated fat cells in which the relative potency of the insulin analogue is defined as the ratio of insulin to insulin analogue to achieve 50% of the maximum conversion of glucose-1-[¹⁴C] into [¹⁴CO₂]; (4) insulin radioimmunoassays which can determine the immunogenicity of insulin analogues by measuring the effectiveness by which insulin or an insulin analogue competes with ¹²⁵I-insulin in binding to specific anti-insulin antibodies; (5) inhibition of gluconeogenesis performed on confluent monolayers of a well differentiated hepatoma cell line (FAO) in which inhibition of glucose secretion into the medium is determined as a function of the concentration of insulin or insulin analogue.
This assay was carried out on confluent monolayers of a well differentiated hepatoma cell line (Lauris et al. Endocrinology 118:2519-2524 (1986)) in which glucose production was monitored with a commercial glucose oxidase kit (Sigma kit no. 510-A, Sigma Technical Bulletin 510, 1983). Inhibition of glucose secretion into the medium was determined as a function of the concentration of insulin or insulin analogue, and the relative potency of the analogue was defined as the ratio of the concentration of insulin to analogue required to produce half-maximal inhibition of glucose production. The cell culture and glucose production was carried out as described by Lauris et al., supra.
The potency of the synthetic insulin in inhibiting gluconeogenesis is calculated to be about 90% relative to the natural hormone.

insulin receptors = experiment: Insulin receptor binding assay (inhibition of specific 125I-insulin binding, rat liver plasma membrane fraction); conditions: concentration ratio of unlabelled insulin to analogue required to inhibit 50% of specific 125I-insulin binding; rat liver plasma membranes, 45 min at 24°C, pH 7.4
Method: Although insulin analogues, in general, maintain some residual insulin activity, the potency of such analogues is usually only a fraction of that of natural insulins. The potency of human, bovine and porcine insulins in USP standards is about 25-26 IU (international units) per mg protein. […]
Briefly, triplicate 0.2ml incubations contained ¹²⁵I-insulin, 3 x 10⁻¹⁰M, unlabelled insulin or [Trp¹⁴-A] insulin prepared as in Example 1, and plasma membranes (20-40 »g of protein) in 0.1 M sodium phosphate, pH 7.4, containing 0.6% fraction V bovine serum albumin. […] The filters were washed twice with the ice cold buffer, dried, and then radioactivity was counted in a scintillation counter using Filtron-X®. […]

rat adipocytes = experiment: Lipogenesis assay (conversion of [3-3H] glucose into lipids in isolated adipocytes); type: cell-based; conditions: for potency in lipogenesis compared to the natural hormone: concentration ratio of bovine insulin to analogue producing 50% of maximum stimulation of lipogenesis
Excerpt: as §1
In this Example the materials used and the analytical procedures followed are those found in Kitagawa et al., Biochemistry, 23: 1405-1413 (1984). ¹²⁵I-insulin for receptor binding studies and [3-³H] glucose for lipogenesis were obtained from DuPont NEN Research Products. Cellulose acetate membrane filters, 0.2 »m pore size, were products of Sartorius. Glass-fiber filters, Type GFC, were from Whatman. Collagenase, Type II crude, was obtained from Worthington. […]
These assays measured the ability of the insulin analogue as compared to bovine insulin to convert [3-³H] glucose into lipids.
Adipocytes were prepared by incubating epididymal and perirenal fat pads obtained from male rats weighing 200-300 g with 1.0 mg/ml collagenase for 60 min at 37°C, followed by filtration through gauze and then through fine-mesh silk. […] Samples were extracted with 10 ml of Soluscint-0® for 30 min at room temperature before counting the radioactivity in a scintillation counter. […] Zero and 100% stimulation of lipogenesis were defined as radioactivity observed in the absence and presence, respectively, of 9.1 x 10⁻¹⁰M insulin (5.5 ng/ml). […]

[2] = from W. Danho et al., Chemical Abstracts 94: 47733x; cited from earlier work
[3] = compared with insulin, FAO cells

Q: Which “potency relative to natural insulins” value [1] does the source give for [10-Aspartic Acid-B] human insulin here?
A: Its value is 4 to 5 times.

Q: For [Trp¹⁴-A] insulin, which “concentration of agonist producing half-maximal inhibition of gluconeogenesis” value (FAO cells; [3]) is on record?
A: The value was “approximately the same concentration of agonist”.

Q: And the “maximum inhibition of gluconeogenesis” value (FAO cells; [3])?
A: Its value is “same maximum inhibition of gluconeogenesis”.

Q: And the “potency in inhibiting gluconeogenesis relative to the natural hormone” value (FAO cells)?
A: Its value is 90%.

Q: What about the “potency in inhibiting gluconeogenesis relative to the natural hormone” value (FAO cells; listed as [Trp ¹⁴-A] insulin) of the same substance?
A: The value was “about 90%”.

Q: What about the “potency of that of the natural hormone (relative potency, receptor binding)” value (insulin receptors) of the same substance?
A: Its value is “about 60%”.

Q: What about the “concentration of agonist producing half-maximal stimulation of lipogenesis” value (rat adipocytes; compared with bovine insulin) of the same substance?
A: Its value is “about twice the concentration of agonist”.

Q: What about the “maximum stimulation of lipogenesis” value (rat adipocytes; compared with bovine insulin) of the same substance?
A: The value was “same maximum stimulation of lipogenesis”.

Q: What about the “potency in lipogenesis compared to the natural hormone” value (rat adipocytes) of the same substance?
A: Its value is “about 60%”.

Q: What about the “potency in lipogenesis compared to the natural hormone” value (rat adipocytes; listed as synthetic insulin) of the same substance?
A: Its value is “approximately 60%”.

Q: Which “biological activity compared with native insulin” value [2] does the source give for porcine A14-phenylalanine insulin here?
A: Its value is “virtually the same biological activity as native insulin”.
